Consider three compounds from US7452683B2, “Caspase 9 activation and uses therefor” (Wyeth, priority 2002, dated 2008).

In one test the target is T1, Caspase 3 (Homo sapiens, UniProt P42574).
T1 sequence (P42574 29-175 limits assumed): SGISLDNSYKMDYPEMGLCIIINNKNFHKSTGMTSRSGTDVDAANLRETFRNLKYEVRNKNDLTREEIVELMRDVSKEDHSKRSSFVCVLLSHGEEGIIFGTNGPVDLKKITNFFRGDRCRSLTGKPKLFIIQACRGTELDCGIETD
T1 sequence (P42574 176-277 limits assumed): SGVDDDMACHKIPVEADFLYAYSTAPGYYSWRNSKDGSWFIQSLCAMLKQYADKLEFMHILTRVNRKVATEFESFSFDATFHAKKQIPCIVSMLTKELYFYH
The test can be described thus: Caspase 3 cleavage of Ac-DEVD-Afc in ammonium sulfate at various concentrations. Particulars: 25 uM Ac-DEVD-Afc.

The target of a further test is T2, Caspase 7 (Homo sapiens, UniProt P55210).
T2 sequence (P55210 24-198 limits assumed): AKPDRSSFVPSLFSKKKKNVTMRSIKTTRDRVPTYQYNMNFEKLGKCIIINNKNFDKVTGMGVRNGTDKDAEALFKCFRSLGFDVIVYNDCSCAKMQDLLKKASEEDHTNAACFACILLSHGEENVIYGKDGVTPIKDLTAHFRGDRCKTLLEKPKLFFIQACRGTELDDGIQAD
T2 sequence (P55210 207-303 limits assumed): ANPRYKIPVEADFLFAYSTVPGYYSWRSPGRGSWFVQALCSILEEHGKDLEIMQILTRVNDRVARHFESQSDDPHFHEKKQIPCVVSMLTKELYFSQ
The test can be described thus: Caspase 7 activity in ammonium sulfate at various concentrations.

The next test concerns the target T3, Caspase 1 (Homo sapiens, UniProt P29466).
T3 sequence (P29466 120-297 limits assumed): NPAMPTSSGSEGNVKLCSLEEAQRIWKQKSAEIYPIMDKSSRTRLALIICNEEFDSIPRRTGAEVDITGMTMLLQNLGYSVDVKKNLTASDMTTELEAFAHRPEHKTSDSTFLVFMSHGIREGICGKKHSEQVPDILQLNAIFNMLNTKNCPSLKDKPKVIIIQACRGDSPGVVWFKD
T3 sequence (P29466 317-404 limits assumed): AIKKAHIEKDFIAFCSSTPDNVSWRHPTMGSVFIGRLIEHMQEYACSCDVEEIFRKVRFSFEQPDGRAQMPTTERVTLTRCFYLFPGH
The test can be described thus: Caspase 1 activity in ammonium sulfate at various concentrations.

The next test has as its target T4, Caspase 9 (Homo sapiens, UniProt P55211).
T4 construct: purchased
T4 sequence (P55211 1-315 limits assumed): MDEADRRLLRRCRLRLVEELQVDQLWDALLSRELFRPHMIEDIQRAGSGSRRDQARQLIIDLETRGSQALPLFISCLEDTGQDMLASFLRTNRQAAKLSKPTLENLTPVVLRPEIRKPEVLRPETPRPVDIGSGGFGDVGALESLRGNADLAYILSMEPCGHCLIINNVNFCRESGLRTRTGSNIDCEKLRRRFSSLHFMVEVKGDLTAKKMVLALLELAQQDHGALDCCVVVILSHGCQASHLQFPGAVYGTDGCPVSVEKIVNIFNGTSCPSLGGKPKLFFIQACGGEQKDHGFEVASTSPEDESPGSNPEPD
T4 sequence (P55211 331-416 limits assumed): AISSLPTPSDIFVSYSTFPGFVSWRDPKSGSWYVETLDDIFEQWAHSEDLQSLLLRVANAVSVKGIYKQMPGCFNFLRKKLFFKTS
The test can be described thus: Caspase 9 cleavage of Ac-LEHD-AFC in buffers containing Hofmeister salts. The format is biochemical.

Test [1] has as its target Herpes simplex virus 1 protease (Human herpesvirus 1, UniProt P10210). Particulars: 1M Na citrate; cited from earlier work.

Counter-ions that a name gives are not always drawn.

Sequence of Herpes simplex virus 1 protease (P10210 1-247): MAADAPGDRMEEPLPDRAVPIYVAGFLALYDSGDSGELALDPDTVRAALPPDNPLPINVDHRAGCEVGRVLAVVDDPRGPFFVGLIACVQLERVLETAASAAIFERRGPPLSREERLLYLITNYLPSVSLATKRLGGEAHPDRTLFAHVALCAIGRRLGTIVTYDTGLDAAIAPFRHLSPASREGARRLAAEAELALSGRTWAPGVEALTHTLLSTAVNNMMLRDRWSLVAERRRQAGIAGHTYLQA
Experimental for Caspase 1: (§1) The control buffer used to carry out specificity reactions is as follows: 20 mM PIPES pH 7.2, 1 mM EDTA, 0.1% CHAPS, 10% sucrose, 10 mM DTT. Various N-acetyl-tetrapeptide-7-amino-trifluoromethylcoumarin substrates at 100 uM were assayed with the different commercially available caspases. 2.5 mM stock substrate concentrations were prepared in DMSO and subsequently diluted to 200 uM with control buffer.
(§2) 300 U stock solutions of the enzymes in interest were prepared in the control buffer listed above. The assay was carried out as follows: 96 well black Dynex microfluorometer 1 plate was used. Total Assay volume was 100 ul. 7-amino-trifluoromethyl coumarin (AFC) was excited at 400 nm, and fluorescence emission was monitored at 505 nm kinetically for the duration of 1 hour (h) wherein AFC was cleaved from the peptide.
(§3) 50 ul of 200 uM stock substrate was added first (final assay concentration 100 uM). 40 ul of the control buffer was then added. The assay was initiated with the addition of 10 ul of the appropriate 300 U caspase stock (30 U in final assay). A linear rate (relative fluorescence U/s) was calculated from the entire duration of the experiment and graphed for each enzyme verses the various substrates tested.
(§4) The substrates in ammonium sulfate using Caspase 9 was 25 uM Ac-LEHD-Afc (SEQ ID NO: 5) and for Caspase 3 was 25 uM Ac-DEVD-Afc (SEQ ID NO: 1).
Experimental for Caspase 3: as §1, §2, §3, §4
Experimental for Caspase 7: as §1, §2, §3, §4

Turning to `N.N.O=S(=O)(O)O` [ammonium sulfate], the “effect of salt on Caspase 3 activity” value at Caspase 3 is “minimal effect”. The “effect of salt on Caspase 7 activity” value on Caspase 7 is listed as “no effect”. In addition, the “effect of salt on Caspase 1 activity” value at Caspase 1 is reported as “no effect”. For the same compound, the “Caspase 9 activity increase” value at Caspase 9 (sulfate concentrations from 0 to 1.6 M, 25 uM Ac-LEHD-Afc) was 1400 fold.
For `O=C(O)CC(O)(CC(=O)O)C(=O)O` [citrate, Na citrate], the “increase in activity of Herpes simplex virus 1 protease” value in test [1] is given as 860 fold. Moreover, the “activity of Caspase 9 relative to activity in 0.8 M bromide” value at Caspase 9 (0.8 M salt in control buffer pH 7.2, 100 uM N-Ac-LEHD-Afc, 30 U Caspase 9/well (0.72 uM)) is given as 10,000 fold.
`O=P(O)(O)O` [sodium phosphate]: the “Caspase 9 activity increase” value at Caspase 9 (phosphate concentrations from 0 to 1 M, 100 uM Ac-LEHD-Afc) is 2200 fold.
